Measurements taken from ChEMBL document CHEMBL4732213, “Discovery of novel ceramide analogs with favorable pharmacokinetic properties and combination with AKT inhibitor against colon cancer” (Eur J Med Chem, 2021).
Calls of active or inactive are those of the source. No cut-off for these calls is given here.

What was measured:
[1] = AUC(0 to t) in BALB/c mouse at 50 mg/kg, ip; type: ADME, organism-based; design: dose 50 mg/kg; conditions: in vivo
[2] = Antiproliferative activity against human MINO cells measured after 72 hrs by CCK-8 assay; type: functional, cell-based
HT-29 [3] = experiment: Down regulation of cyclin A expression in human HT29 cells at 20 uM incubated for 24 hrs in presence of 10 uM AKT inhibitor MK2206 by Western blotting analysis; type: functional, cell-based
Caco-2 = experiment: Antiproliferative activity against human Caco2 cells measured after 72 hrs by sulforhodamine B assay; type: functional, cell-based; conditions: Caco-2, 72 h
HT-29 [4] = experiment: Induction of apoptosis in human HT29 cells assessed as inhibition of AKT phosphorylation at 20 uM after 48 hrs in presence of 10 uM MK2206 by Western blotting analysis; type: functional, cell-based
HT-29 [5] = experiment: Induction of ROS generation in human HT29 cells at 20 uM after 16 hrs in presence of 10 uM AKT inhibitor MK2206 by flow cytometric analysis; type: functional, cell-based
HT-29 [6] = experiment: Induction of apoptosis in human HT29 cells at 15 uM after 48 hrs in presence of 7.5 uM AKT inhibitor MK2206 by Annexin-V-FITC/PI staining based flow cytometric analysis; type: functional
HT-29 [7] = experiment: Synergistic antiproliferative activity against human HT29 cells assessed as combination index at 30 uM after 72 hrs in presence of 7.5 uM AKT inhibitor MK2206 by Chou-Talalay method; type: functional
[8] = Half life in BALB/c mouse at 10 mg/kg, iv; type: ADME, organism-based; conditions: in vivo
SW480 = experiment: Additive antiproliferative activity against human SW480 cells assessed as combination index at 10 uM after 72 hrs in presence of 5 uM AKT inhibitor MK2206 by Chou-Talalay method; type: functional
[9] = Antiproliferative activity against human SNU878 cells measured after 72 hrs by sulforhodamine B assay; type: functional, cell-based; conditions: SNU878, 72 h
[10] = Toxicity in BALB/c nude mouse xenografted with human HT-29 cells assessed as effect on body weight at 100 mg/kg/day, ip measured every 3 day by electronic caliper method; type: organism-based; conditions: in vivo, 72 h
[11] = Cmax in BALB/c mouse at 50 mg/kg, ip; type: ADME, organism-based; design: route intraperitoneal, dose 50 mg/kg; conditions: in vivo
SW-620 = experiment: Antiproliferative activity against human SW620 cells measured after 72 hrs by sulforhodamine B assay; type: functional, cell-based; conditions: SW-620, 72 h
HT-29 [12] = experiment: Induction of apoptosis in human HT29 cells assessed as increase in caspase-3 cleavage at 20 uM after 48 hrs in presence of 10 uM AKT inhibitor MK2206 by Western blot analysis; type: functional, cell-based
HT-29 [13] = experiment: Induction of apoptosis in human HT29 cells assessed as increase in caspase-3 activity at 20 uM after 24 hrs in presence of 10 uM AKT inhibitor MK2206 by Western blot analysis; type: functional, cell-based
HT-29 [14] = experiment: Antitumor activity against human HT-29 cells xenografted in BALB/c nude mouse assessed as reduction in tumor weight at 100 mg/kg/day, ip measured every 3 days in presence of 50 mg/kg AKT inhibitor MK2206 by electronic caliper method; type: functional, organism-based; conditions: time 3.0 day
COLO 205 = experiment: Antiproliferative activity against human COLO 205 cells measured after 72 hrs by sulforhodamine B assay; type: functional, cell-based; conditions: COLO 205, 72 h
HT-29 [15] = experiment: Antitumor activity against human HT-29 cells xenografted in BALB/c nude mouse assessed as tumor growth inhibition at 100 mg/kg/day, ip measured every 3 days in presence of 50 mg/kg AKT inhibitor MK2206 by electronic caliper method; type: functional; conditions: HT-29, ip, 72 h, time 3 day, read-out: TGI
[16] = Tmax in BALB/c mouse at 50 mg/kg, ip; type: ADME, organism-based; conditions: in vivo
HT-29 [17] = experiment: Induction of apoptosis in human HT29 cells assessed as increase in PARP cleavage at 20 uM after 48 hrs in presence of 10 uM AKT inhibitor MK2206 by Western blot analysis; type: functional, cell-based

AUC(0-t) [1]: 15600 ng·h/mL | IC50 (Caco-2): 28 µM | half-life [8]: 3.12 h | Cmax [11]: 6030 ng/mL | IC50 (SW-620): 29.6 µM | IC50 (COLO 205): 18.3 µM | Tmax [16]: 0.75 h
Compound: CCCCCCCOc1ccc(CCC(CO)(CO)NC(C)=O)c2ccccc12
IC50 [2]: 13.3 µM | Activity (HT-29 [3]): Active | Activity (HT-29 [4]): inactive | Activity (HT-29 [5]): Active | Activity (HT-29 [6]): 40% | CI (HT-29 [7]): 0.53 | CI (SW480): 0.9 | IC50 [9]: 6.68 µM | Activity [10]: Non-Toxic | Activity (HT-29 [12]): Active | Activity (HT-29 [13]): Active | Activity (HT-29 [14]): Active | inhibition in vivo at 100 mg/kg/day (HT-29 [15]): 47.5% | Activity (HT-29 [17]): Active
